# pIC50: −log10 of the molar value. “And” between values parts separate entries of the source, which are not always exact repeats. Equal entries are not always repeated.
# Assays:
# [1] = molecular target: T1, COX-2 (Homo sapiens, UniProt P35354); assay: COX-2 inhibition IC50, COX Fluorescent Inhibitor Screening Assay; format: biochemical
# T1 construct: purchased Cayman Chemical 700100
# T1 sequence (P35354 18-604): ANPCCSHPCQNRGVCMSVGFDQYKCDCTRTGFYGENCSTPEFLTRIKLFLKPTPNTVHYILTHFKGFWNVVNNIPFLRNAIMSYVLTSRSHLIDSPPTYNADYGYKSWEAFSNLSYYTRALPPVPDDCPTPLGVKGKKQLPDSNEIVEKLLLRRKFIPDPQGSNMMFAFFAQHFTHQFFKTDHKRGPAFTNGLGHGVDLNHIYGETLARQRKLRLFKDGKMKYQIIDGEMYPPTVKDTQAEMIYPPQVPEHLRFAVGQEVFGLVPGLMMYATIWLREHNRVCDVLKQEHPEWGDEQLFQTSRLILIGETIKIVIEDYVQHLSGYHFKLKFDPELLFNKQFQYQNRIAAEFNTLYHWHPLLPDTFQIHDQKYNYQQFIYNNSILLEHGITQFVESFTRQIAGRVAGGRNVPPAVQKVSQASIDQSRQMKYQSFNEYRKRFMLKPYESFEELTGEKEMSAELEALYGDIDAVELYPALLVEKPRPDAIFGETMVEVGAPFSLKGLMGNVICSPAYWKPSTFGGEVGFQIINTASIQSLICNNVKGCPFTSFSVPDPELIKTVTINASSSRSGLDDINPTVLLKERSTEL
# Description: A COX Fluorescent Inhibitor Screening Assay Kit (catalog number 700100, Cayman Chemical, Ann Arbor, Mich.) is useful for assaying the ability of the compounds provided herein to inhibit ovine COX-1 and human recombinant COX-2 (% inhibition at 100 μM and IC50 values (M), respectively). Stock solutions of test compounds are dissolved in a minimum volume of DMSO. 10 μl of various concentrations of the test compound solutions, e.g., [I]final between 0.01 and 100 μM, are added to a series of supplied reaction buffer solutions (150 μl, 100 mM Tris-HCl, pH 8.0) with either COX-1 or COX-2 (10 μl) enzyme in the presence of Heme (10 μl) and a fluorometric substrate (10 μl). The reactions are initiated by quickly adding 10 μl of arachidonic acid solution and then incubating the system for two minutes at room temperature. Fluorescence of resorufin, which is produced by the reaction between PGG2 and fluorometric substrate, ADHP (10-acetyl-3,7-dihydroxyphenoxazine), is analyzed with an excitation wavelength of 535 nm and an emission wavelength of 590 nm. The intensity of this fluorescence is proportional to the amount of resorufin, which is proportional to the amount of PGG2 present in the well during the incubation. Percent inhibition is calculated by comparison from the 100% initial activity sample value (no inhibitor).
# [2] = system: C57BL/6 mice, bleomycin-induced fibrotic lung injury; assay: Example 2: therapeutic treatment in bleomycin-induced idiopathic pulmonary fibrosis mouse model; format: in vivo; details: OX1 60 mg/kg, Pirfenidone 100 mg/kg
# From the text: The purpose of this study is to induce fibrotic lung injury in mice via a single administration of a glycopeptide antibiotic, bleomycin, in order to evaluate the efficacy of dual sEH and COX-2 inhibitor OX-1 in treating and reducing the symptoms associated with idiopathic pulmonary fibrosis. Pirfenidone, standard of care for the treatment of idiopathic pulmonary fibrosis, was used as a reference compound.
# Male C57BL/6 mice from Charles River Laboratories aging of 7-8 weeks and weighing around 18-22 g at the time of their enrollment were used in the study.
# Doses of OX1 at 60 mg/kg, Pirfenidone at 100 mg/kg, and the disease inducer Bleomycin at 1.5 mg/kg were used. A dosing rate of 10 mL/kg (approximately 0.2 mL/mouse according to their body weight) of OX1 was administered orally once daily to the mice. The mice received OX1 at 60 mg/kg once daily. A dosing rate of 10 mL/kg (approximately 0.2 mL/mouse according to their body weight) of Pirfenidone solution was administered once daily to the mice of the groups receiving Pirfenidone orally at the dose of 100 mg/kg once daily. A single intratracheal instillation of approximately 50 μL (1.5 mg/kg with a dosing rate of 2.5 mL/kg in sterile 0.9% saline) of bleomycin solution was administered to all mice except the sham group on day 0. Animals in the Sham group received one intratracheal instillation of approximately 50 μL of 0.9% saline solution on Day 0 and returned to their respective cages.
# Treatment with the vehicle or test articles were initiated and administered starting on day 7 to day 21 as scheduled and described in Table 1 above. All test articles, reference compound and vehicle were administered to animals orally once daily. Food and water were given ad libitum. Daily observations of the behavioral and general health status of the animals were done. Daily body weight was also measured.
# Prior to physiological assessment, all mice were introduced to the plethysmograph chamber environment. After the acclimatization period, the functional respiratory parameters were assessed by the whole-body plethysmograph on Day 0 (before bleomycin instillation), 7, 14 and 21 post-bleomycin instillation. Each measurement was performed with a mouse placed alone in an unrestrained whole-body plethysmography chamber (Buxco Electronics Inc.) to measure respiratory functions. The functional respiratory parameters analyzed included; the respiratory rate, the PenH ([…]) and the inspiratory/expiratory time measurements.
# On the surgery day (Day 21), the mice were anesthetized, instrumented and arterial blood oxygen saturation (SpO2) was recorded. Blood oxygen saturation was read off of the pulse oximeter (STARR Life Sciences MouseOx Plus system, Oakmont, Pa.) with the probe attached to the right thigh of the animal. The saturation values were measured in percentage (%). At the moment of the sacrifice, the mouse thoracic cavity was open to expose the lungs and all mice were euthanatized by exsanguination. The trachea was then connected to the cannula of a perfusion system. The left lung was clamped while 1.5 mL of cold PBS solution (3×500 μL) was injected by the trachea to perform a bronchoalveolar lavage fluid (BALF) on the right lobe of the lungs and was collected on ice for further analysis. The total cells count with cells differential, the cytokine levels including TNF-α, TGF-β, IL-4, IL-5 and IL-17a, the total protein content as well as the soluble collagen were assessed in the BALF samples. Once collected, 300 μL of the BALF was transferred in an EDTA tube, kept at 2-4° C. and shipped to Biovet Inc. for the total cells count with cells differential analysis. The remaining BALF sample was centrifuged at 1200 rpm for 10 minutes at 4° C. to remove cells. The supernatant was aliquots and frozen at−80° C. until analysis was performed. […]
smiles,measurement,setting,value
"NS(=O)(=O)c1ccc(-n2nc(CCCNC(=O)Nc3ccc(C(F)(F)F)cc3)cc2-c2ccccc2)cc1 [OX1, 4-(5-phenyl-3-{3-[3-(4-trifluoromethyl-phenyl)-ureido]-propyl}-pyrazol-1-yl)-benzenesulfonamide]",pIC50,[1],7.00
same,Eosinophils (cells),"[2]; BALF day 21, mean",580 cells
same,Macrophages (cells),"[2]; BALF day 21, mean",204879 cells
same,Soluble collagen,"[2]; BALF day 21, mean",60.4 µg and 60.38 µg
same,Total BALF cytokines (pg) IL-4,"[2]; BALF day 21, mean",0.09 pg
same,Total BALF cytokines (pg) IL-5,"[2]; BALF day 21, mean",2.49 pg
same,Total BALF cytokines (pg) IL-6,"[2]; BALF day 21, mean",9.50 pg
same,Total TGFβ,"[2]; BALF day 21, mean",299.3 pg and 299.31 pg
same,Percent Survival (%),"[2]; BLM mice, oral once daily day 7 to 21",77.8%
same,Body weight changes from day 7 (%),"[2]; mean, BLM mice, oral once daily day 7 to 21",11.63%

# Source: patent US20220218667A1, “DUAL INHIBITORS OF SOLUBLE EPOXIDE HYDROLASE AND METHODS OF USE THEREOF” (OROX Biosciences, Inc., priority 2019, published 2022)
